Laboratory results: patent publication US20230141600A1, “IMIDAZOPYRAZINE DERIVATIVES” (priority 2020, published 2023)
Where a name gives a salt, the structure may show the parent alone.

Each compound was assayed on Acinetobacter baumannii ATCC17961 (assay: 90% growth inhibitory concentration (IC90) determination, antimicrobial susceptibility testing). Conditions: Acinetobacter baumannii, ATCC17961, 16 h, 90% growth inhibition, Iso-Sensitest broth, OD 600 nm over 16 h, 35±2° C.; read-out: ATCC 17961 IC90.
Format: cell-based
Protocol: Antimicrobial Susceptibility Testing:
90% Growth Inhibitory Concentration (IC90) Determination
The in vitro antimicrobial activity of the compounds was determined according to the following procedure:
The assay used a 10-points Iso-Sensitest broth medium to measure quantitatively the in vitro activity of the compounds against Acinetobacter baumannii ATCC17961 and ATCC17978.
Stock compounds in DMSO were serially twofold diluted (e.g. range from 50 to 0.097 μM final concentration) in 384 wells microtiter plates and inoculated with 49 μl the bacterial suspension in Iso-Sensitest medium to have a final cell concentration of ˜5×10^(5) CFU/ml in a final volume/well of 50 ul/well. Microtiter plates were incubated at 35±2° C.
Bacterial cell growth was determined with the measurement of optical density at λ=600 nm each minutes over a time course of 16 h. Growth inhibition was calculated during the logarithmic growth of the bacterial cells with determination of the concentration inhibiting 50% (IC50) and 90% (IC90) of the growth.
Table 2 provides the 90% growth inhibitory concentrations (IC90) in micromoles per liter of the compounds of present invention obtained against the strain Acinetobacter baumannii ATCC17961.
`CCc1cc(Nc2nccn3c(-c4cn(CC(F)F)nc4C(F)(F)F)cnc23)ccc1C(=O)NCCCCC[N+](C)(C)CC(=O)O` [Example 113, Carboxymethyl-[5-[[4-[[3-[1-(2,2-difluoroethyl)-3-(trifluoromethyl)pyrazol-4-yl]imidazo[1,2-a]pyrazin-8-yl]amino]-2-ethyl-benzoyl]amino]pentyl]-dimethyl-ammonium Formate] gave an IC90 of 2480 nM.
In the case of `CCc1cc(Nc2nccn3c(-c4ccc(OC(F)F)c(F)c4F)cnc23)ccc1C(=O)N1CCN(C(=O)C2CC[N+](C)(CC34CC(N)(C3)C4)CC2)CC1` (stereo not drawn) [Example 86, [4-[1-[(3-amino-1-bicyclo[1.1.1]pentanyl)methyl]-1-methyl-piperidin-1-ium-4-carbonyl]piperazin-1-yl]-[4-[[3-[4-(difluoromethoxy)-2,3-difluoro-phenyl]imidazo[1,2-a]pyrazin-8-yl]amino]-2-ethyl-phenyl]methanone bis(2,2,2-trifluoroacetate)], the IC90 is reported as 168 nM.
`CCc1cc(Nc2nccn3c(-c4ccc(OC(F)F)c(F)c4F)cnc23)ccc1C(=O)N1CCC(C(=O)N2CC[N+](C)(CC3CCNC3)CC2)CC1` (stereo not drawn) [Example 97, [4-[[3-[4-(Difluoromethoxy)-2,3-difluoro-phenyl]imidazo[1,2-a]pyrazin-8-yl]amino]-2-ethyl-phenyl]-[4-[4-methyl-4-(pyrrolidin-3-ylmethyl)piperazin-4-ium-1-carbonyl]-1-piperidyl]methanone 2,2,2-trifluoroacetate] gave an IC90 of 205 nM.
For `CCc1cc(Nc2nccn3c(-c4ccc(OC(F)F)c(F)c4F)cnc23)ccc1C(=O)NCC1CC[N+](C)(CC2CNC2)C1` (stereo not drawn) [Example 88, N-[[1-(azetidin-3-ylmethyl)-1-methyl-pyrrolidin-1-ium-3-yl]methyl]-4-[[3-[4-(difluoromethoxy)-2,3-difluoro-phenyl]imidazo[1,2-a]pyrazin-8-yl]amino]-2-ethyl-benzamide bis(2,2,2-trifluoroacetate)], the IC90 was 485 nM.
Compound `CCc1cc(Nc2nccn3c(-c4cn(CC#N)nc4C(F)(F)F)cnc23)ccc1C(=O)NCCCCC[N+](C)(CC(=O)O)CC1CNC1` (stereo not drawn) [Example 109, Azetidin-3-ylmethyl-(carboxymethyl)-[5-[[4-[[3-[1-(cyanomethyl)-3-(trifluoromethyl)pyrazol-4-yl]imidazo[1,2-a]pyrazin-8-yl]amino]-2-ethyl-benzoyl]amino]pentyl]-methyl-ammonium Formate] has an IC90 of 3830 nM.
`CCc1cc(Nc2nccn3c(-c4ccc(OC(F)F)c(F)c4F)cnc23)ccc1C(=O)NCCCCC[N+](C)(C)CC(=O)N1CCNCC1` [Example 79, 5-[[4-[[3-[4-(Difluoromethoxy)-2,3-difluoro-phenyl]imidazo[1,2-a]pyrazin-8-yl]amino]-2-ethyl-benzoyl]amino]pentyl-dimethyl-(2-oxo-2-piperazin-1-yl-ethyl)ammonium bis(2,2,2-trifluoroacetate)] gave an IC90 of 82.2 nM.
`COc1ccc(-c2cnc3c(Nc4ccc(C(=O)NC5CCCN(C(=O)C[N+](C)(C)C)C5)c(C)c4)nccn23)c(F)c1F` (stereo not drawn) [Example 68, 2-(3-(4-((3-(2,3-Difluoro-4-methoxyphenyl)imidazo[1,2-a]pyrazin-8-yl)amino)-2-methylbenzamido)piperidin-1-yl)-N,N,N-trimethyl-2-oxoethan-1-aminium Chloride] showed an IC90 of 168 nM.
With `Cc1cc(Nc2nccn3c(-c4cn(C)nc4C(F)(F)F)cnc23)ccc1C(=O)N1CCN(C(=O)C[N+](C)(C)C)CC1` [Example 111, Trimethyl-[2-[4-[2-methyl-4-[[3-[1-methyl-3-(trifluoromethyl)pyrazol-4-yl]imidazo[1,2-a]pyrazin-8-yl]amino]benzoyl]piperazin-1-yl]-2-oxo-ethyl]ammonium Formate] the IC90 was 2800 nM.
Work on `COc1ccc(-c2cnc3c(Nc4ccc(C(=O)N[C@H]5C[C@@H](NCC[N+](C)(C)C)C5)c(Cl)c4)nccn23)c(F)c1F` [Example 66, 2-[[3-[[2-Chloro-4-[[3-(2,3-difluoro-4-methoxy-phenyl)imidazo[1,2-a]pyrazin-8-yl]amino]benzoyl]amino]cyclobutyl]amino]ethyl-trimethyl-ammonium Formate] yielded an IC90 of 57.2 nM.
For `CCc1cc(Nc2nccn3c(-c4ccc(OC)c(F)c4F)cnc23)ccc1C(=O)N[C@H]1CC[C@H](NC(=O)C[N+](C)(C)C)CC1` [Example 77, Trans-[2-[[4-[[4-[[3-(2,3-Difluoro-4-methoxyphenyl)imidazo[1,2-a]pyrazin-8-yl]amino]-2-ethylbenzoyl]amino]cyclohexyl]amino]-2-oxoethyl]-trimethylazanium formate], the IC90 was 342 nM.
`COc1ccc(-c2cnc3c(Nc4ccc(C(=O)N[C@H]5CC[C@@H](NC(=O)C[N+](C)(C)C)CC5)c(C)c4)nccn23)c(F)c1F` [Example 63, 2-(((1s,4s)-4-(4-((3-(2,3-Difluoro-4-methoxyphenyl)imidazo[1,2-a]pyrazin-8-yl)amino)-2-methylbenzamido)cyclohexyl)amino)-N,N,N-trimethyl-2-oxoethan-1-aminium Chloride] showed an IC90 of 81.1 nM.
`COc1ccc(-c2cnc3c(Nc4ccc(C(=O)N5CCN(C(=O)[C@@H]6C[C@@H](O)C[N+]6(C)C)CC5)c(C)c4)nccn23)c(F)c1F` [Example 55, (2S,4R)-2-(4-(4-((3-(2,3-Difluoro-4-methoxyphenyl)imidazo[1,2-a]pyrazin-8-yl)amino)-2-methylbenzoyl)piperazine-1-carbonyl)-4-hydroxy-1,1-dimethylpyrrolidin-1-ium Formate] was tested, and the IC90 was 132 nM.
In the case of `CCc1cc(Nc2nccn3c(-c4ccc(Oc5ncccn5)c(F)c4F)cnc23)ccc1C(=O)NCC1CC[N+](C)(CC2CCNC2)CC1` (stereo not drawn) [Example 118, 4-[[3-(2,3-Difluoro-4-pyrimidin-2-yloxy-phenyl)imidazo[1,2-a]pyrazin-8-yl]amino]-2-ethyl-N-[[1-methyl-1-(pyrrolidin-3-ylmethyl)piperidin-1-ium-4-yl]methyl]benzamide Formate], the IC90 is reported as 832 nM.
`COc1ccc(-c2cnc3c(Nc4ccc(C(=O)N5CCN(C(=O)C[N+](C)(C)C)CC5)c(Cl)c4)nccn23)c(F)c1F` [Example 12, 2-(4-(2-Chloro-4-((3-(2,3-difluoro-4-methoxyphenyl)imidazo[1,2-a]pyrazin-8-yl)amino)benzoyl)piperazin-1-yl)-N,N,N-trimethyl-2-oxoethan-1-aminium Iodide] gave an IC90 of 44.7 nM.
`CCc1cc(Nc2nccn3c(-c4c[nH]nc4C(F)(F)F)cnc23)ccc1C(=O)NCC1CC[N+](C)(CC2CNC2)C1` (stereo not drawn) [Example 138, N-[[1-(Azetidin-3-ylmethyl)-1-methyl-pyrrolidin-1-ium-3-yl]methyl]-2-ethyl-4-[[3-[3-(trifluoromethyl)-1H-pyrazol-4-yl]imidazo[1,2-a]pyrazin-8-yl]amino]benzamide bis(2,2,2-trifluoroacetate)] was tested, and the IC90 was 4140 nM.
With `C[N+]1(CC2CCNC2)CCC(C(=O)NCCCNC(=O)c2ccc(Nc3nccn4c(-c5ccc(OC(F)F)c(F)c5F)cnc34)cc2Cl)CC1` (stereo not drawn) [Example 117, N-[3-[[2-Chloro-4-[[3-[4-(difluoromethoxy)-2,3-difluoro-phenyl]imidazo[1,2-a]pyrazin-8-yl]amino]benzoyl]amino]propyl]-1-methyl-1-(pyrrolidin-3-ylmethyl)piperidin-1-ium-4-carboxamide Formate] the IC90 was 157 nM.
Compound `CCc1cc(Nc2nccn3c(-c4ccc(OC)c(F)c4F)cnc23)ccc1C(=O)NCCCCC[N+](C)(C)CC(N)=O` [Example 76, Mono(N-(2-amino-2-oxoethyl)-5-(4-((3-(2,3-difluoro-4-methoxyphenyl)imidazo[1,2-a]pyrazin-8-yl)amino)-2-ethylbenzamido)-N,N-dimethylpentan-1-aminium) monoformate Monoiodide] has an IC90 of 27.4 nM.
`Cc1cc(Nc2nccn3c(-c4cn(CC#N)nc4C(F)(F)F)cnc23)ccc1C(=O)N1CCN(C(=O)C[N+](C)(C)C)CC1` [Example 64, [2-[4-[4-[[3-[1-(Cyanomethyl)-3-(trifluoromethyl)pyrazol-4-yl]imidazo[1,2-a]pyrazin-8-yl]amino]-2-methyl-benzoyl]piperazin-1-yl]-2-oxo-ethyl]-trimethyl-ammonium Formate] showed an IC90 of 780 nM.
`CCc1cc(Nc2nccn3c(-c4ccc(Oc5ccccc5)c(F)c4F)cnc23)ccc1C(=O)NCC1CC[N+](C)(CC2CCNC2)CC1` (stereo not drawn) [Example 145, 4-[[3-(2,3-Difluoro-4-phenoxy-phenyl)imidazo[1,2-a]pyrazin-8-yl]amino]-2-ethyl-N-[[1-methyl-1-(pyrrolidin-3-ylmethyl)piperidin-1-ium-4-yl]methyl]benzamide Formate] was tested, and the IC90 was 1780 nM.
`CCc1cc(Nc2nccn3c(-c4ccc(OC(F)F)c(F)c4F)cnc23)ccc1C(=O)N1CCN(C(=O)C2CC[N+](C)(CC3CNC3)CC2)C(C(=O)OC)C1` (stereo not drawn) [Example 94, methyl 1-[1-(azetidin-3-ylmethyl)-1-methyl-piperidin-1-ium-4-carbonyl]-4-[4-[[3-[4-(difluoromethoxy)-2,3-difluoro-phenyl]imidazo[1,2-a]pyrazin-8-yl]amino]-2-ethyl-benzoyl]piperazine-2-carboxylate tris(2,2,2-trifluoroacetate)] showed an IC90 of 457 nM.

Same assay, conditions: Acinetobacter baumannii, ATCC17961, 16 h, read-out: ATCC 17961 IC90
Work on `CCc1cc(Nc2nccn3c(-c4ccc(OC(F)F)c(F)c4F)cnc23)ccc1C(=O)NCCC1C[N+](C)(CC2CNC2)C1` (stereo not drawn) [Example 90, N-[2-[1-(azetidin-3-ylmethyl)-1-methyl-azetidin-1-ium-3-yl]ethyl]-4-[[3-[4-(difluoromethoxy)-2,3-difluoro-phenyl]imidazo[1,2-a]pyrazin-8-yl]amino]-2-ethyl-benzamide Diformate] yielded an IC90 of 320 nM.
